# Laboratory results from PubChem BioAssay AID1963970 (Molecular Pharmacology Branch, DTP, NCI, 2024).
# Tested on: 931267-113-T-J1-PDC multicell spheroid viability
# Experiment: Anticancer human tumor 931267-113-T-J1-PDC patient-derived colon adenocarcinoma cell line growth inhibition [PI3K]
# Conditions: for IC50: curve of first compound; for viability, T/C: stronger effect = lower value
# Summary of the method: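 We assembled tumor spheroids that included a stromal compartment of HUVEC and MSCs, then exposed them to targeted agents alone and together with PI3K pathway inhibitors. Concentration series descended by half-log from clinically achievable Cmax levels. Viability served as the endpoint.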
# [1] = second compound 0.00316 µM, first compound 0.0316 µM
# [2] = second compound 0.00316 µM, first compound 0.1 µM
# [3] = second compound 0.00316 µM, first compound 0.316 µM
# [4] = second compound 0.00316 µM, first compound 1 µM
# [5] = second compound 0.01 µM, first compound 0.0316 µM
# [6] = second compound 0.01 µM, first compound 0.1 µM
# [7] = second compound 0.01 µM, first compound 0.316 µM
# [8] = second compound 0.01 µM, first compound 1 µM
# [9] = second compound 0.0316 µM, first compound 0.0316 µM
# [10] = second compound 0.0316 µM, first compound 0.1 µM
# [11] = second compound 0.0316 µM, first compound 0.316 µM
# [12] = second compound 0.0316 µM, first compound 1 µM
# [13] = second compound 0.1 µM, first compound 0.0316 µM
# [14] = second compound 0.1 µM, first compound 0.1 µM
# [15] = second compound 0.1 µM, first compound 0.316 µM
# [16] = second compound 0.1 µM, first compound 1 µM
# [17] = second compound 0.316 µM, first compound 0.0316 µM
# [18] = second compound 0.316 µM, first compound 0.1 µM
# [19] = second compound 0.316 µM, first compound 0.316 µM
# [20] = second compound 0.316 µM, first compound 1 µM
# [21] = second compound 1 µM, first compound 0.0316 µM
# [22] = second compound 1 µM, first compound 0.1 µM
# [23] = second compound 1 µM, first compound 0.316 µM
# [24] = second compound 1 µM, first compound 1 µM
# [25] = second compound 0.00316 µM, first compound 0.00316 µM
# [26] = second compound 0.00316 µM, first compound 0.01 µM
# [27] = second compound 0.01 µM, first compound 0.00316 µM
# [28] = second compound 0.01 µM, first compound 0.01 µM
# [29] = second compound 0.0316 µM, first compound 0.00316 µM
# [30] = second compound 0.0316 µM, first compound 0.01 µM
# [31] = second compound 0.1 µM, first compound 0.00316 µM
# [32] = second compound 0.1 µM, first compound 0.01 µM
# [33] = second compound 0.316 µM, first compound 0.00316 µM
# [34] = second compound 0.316 µM, first compound 0.01 µM
# [35] = second compound 1 µM, first compound 0.00316 µM
# [36] = second compound 1 µM, first compound 0.01 µM
# 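Further: viability read 7 days after compound addition.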
smiles,measurement,setting,value
CC(C)NCC(C(=O)N1CCN(c2ncnc3c2C(C)CC3O)CC1)c1ccc(Cl)cc1 (stereo unspecified) + CC(Nc1ccc2c(c1)OCCn1cc(N3C(=O)OCC3C(F)F)nc1-2)C(N)=O,IC50,second compound 0.00316 µM,> 10000 nM
same,IC50,second compound 0.01 µM,> 10000 nM
same,IC50,second compound 0.0316 µM,> 10000 nM
same,IC50,second compound 0.1 µM,> 10000 nM
same,IC50,second compound 0.316 µM,> 10000 nM
same,IC50,second compound 1 µM,> 10000 nM
same,"viability, T/C",[1],91%
same,"viability, T/C",[2],90.8%
same,"viability, T/C",[3],92.9%
same,"viability, T/C",[4],95.5%
same,"viability, T/C","second compound 0.00316 µM, first compound 3.16 µM",86.8%
same,"viability, T/C","second compound 0.00316 µM, first compound 10 µM",67.3%
same,"viability, T/C",[5],102%
same,"viability, T/C",[6],94.3%
same,"viability, T/C",[7],97.2%
same,"viability, T/C",[8],95.2%
same,"viability, T/C","second compound 0.01 µM, first compound 3.16 µM",83.5%
same,"viability, T/C","second compound 0.01 µM, first compound 10 µM",69.8%
same,"viability, T/C",[9],103%
same,"viability, T/C",[10],105%
same,"viability, T/C",[11],99.2%
same,"viability, T/C",[12],94.8%
same,"viability, T/C","second compound 0.0316 µM, first compound 3.16 µM",96.4%
same,"viability, T/C","second compound 0.0316 µM, first compound 10 µM",69.9%
same,"viability, T/C",[13],101%
same,"viability, T/C",[14],95.7%
same,"viability, T/C",[15],97.9%
same,"viability, T/C",[16],96.2%
same,"viability, T/C","second compound 0.1 µM, first compound 3.16 µM",84.2%
same,"viability, T/C","second compound 0.1 µM, first compound 10 µM",64.7%
same,"viability, T/C",[17],85.3%
same,"viability, T/C",[18],84.5%
same,"viability, T/C",[19],83.7%
same,"viability, T/C",[20],85.4%
same,"viability, T/C","second compound 0.316 µM, first compound 3.16 µM",80.5%
same,"viability, T/C","second compound 0.316 µM, first compound 10 µM",66.7%
same,"viability, T/C",[21],73%
same,"viability, T/C",[22],75.4%
same,"viability, T/C",[23],72.1%
same,"viability, T/C",[24],76%
same,"viability, T/C","second compound 1 µM, first compound 3.16 µM",82.9%
same,"viability, T/C","second compound 1 µM, first compound 10 µM",59.9%
CCN1CCN(Cc2ccc(Nc3ncc(F)c(-c4cc(F)c5nc(C)n(C(C)C)c5c4)n3)nc2)CC1 + CC(Nc1ccc2c(c1)OCCn1cc(N3C(=O)OCC3C(F)F)nc1-2)C(N)=O,IC50,second compound 0.00316 µM,> 1000 nM
same,IC50,second compound 0.01 µM,> 1000 nM
same,IC50,second compound 0.0316 µM,> 1000 nM
same,IC50,second compound 0.1 µM,> 1000 nM
same,IC50,second compound 0.316 µM,> 1000 nM
same,IC50,second compound 1 µM,452 nM
same,"viability, T/C",[25],95.5%
same,"viability, T/C",[26],99.3%
same,"viability, T/C",[1],102%
same,"viability, T/C",[2],108%
same,"viability, T/C",[3],99.3%
same,"viability, T/C",[4],80.8%
same,"viability, T/C",[27],108%
same,"viability, T/C",[28],96.7%
same,"viability, T/C",[5],99.2%
same,"viability, T/C",[6],91.5%
same,"viability, T/C",[7],93.4%
same,"viability, T/C",[8],80.7%
same,"viability, T/C",[29],105%
same,"viability, T/C",[30],101%
same,"viability, T/C",[9],95.2%
same,"viability, T/C",[10],85.2%
same,"viability, T/C",[11],86%
same,"viability, T/C",[12],70.2%
same,"viability, T/C",[31],92.8%
same,"viability, T/C",[32],97.8%
same,"viability, T/C",[13],94.1%
same,"viability, T/C",[14],79.7%
same,"viability, T/C",[15],69.7%
same,"viability, T/C",[16],60.9%
same,"viability, T/C",[33],80.4%
same,"viability, T/C",[34],84.5%
same,"viability, T/C",[17],79%
same,"viability, T/C",[18],70.4%
same,"viability, T/C",[19],62.5%
same,"viability, T/C",[20],51.6%
same,"viability, T/C",[35],86.7%
same,"viability, T/C",[36],79.4%
same,"viability, T/C",[21],65.7%
same,"viability, T/C",[22],59.2%
same,"viability, T/C",[23],52%
same,"viability, T/C",[24],46.3%
Cn1ncnc1[C@H]1c2n[nH]c(=O)c3cc(F)cc(c23)N[C@@H]1c1ccc(F)cc1 + CC(Nc1ccc2c(c1)OCCn1cc(N3C(=O)OCC3C(F)F)nc1-2)C(N)=O,IC50,second compound 0.00316 µM,> 100 nM
same,IC50,second compound 0.01 µM,> 100 nM
same,IC50,second compound 0.0316 µM,> 100 nM
same,IC50,second compound 0.1 µM,> 100 nM
same,IC50,second compound 0.316 µM,> 100 nM
same,IC50,second compound 1 µM,> 100 nM
same,"viability, T/C","second compound 0.00316 µM, first compound 0.000316 µM",98.5%
same,"viability, T/C","second compound 0.00316 µM, first compound 0.001 µM",113%
same,"viability, T/C",[25],104%
same,"viability, T/C",[26],111%
same,"viability, T/C",[1],103%
same,"viability, T/C",[2],102%
same,"viability, T/C","second compound 0.01 µM, first compound 0.000316 µM",114%
same,"viability, T/C","second compound 0.01 µM, first compound 0.001 µM",108%
same,"viability, T/C",[27],91.5%
same,"viability, T/C",[28],114%
same,"viability, T/C",[5],104%
same,"viability, T/C",[6],108%
same,"viability, T/C","second compound 0.0316 µM, first compound 0.000316 µM",109%
same,"viability, T/C","second compound 0.0316 µM, first compound 0.001 µM",96.9%
same,"viability, T/C",[29],105%
same,"viability, T/C",[30],103%
same,"viability, T/C",[9],108%
same,"viability, T/C",[10],102%
same,"viability, T/C","second compound 0.1 µM, first compound 0.000316 µM",101%
same,"viability, T/C","second compound 0.1 µM, first compound 0.001 µM",87.5%
same,"viability, T/C",[31],86.1%
same,"viability, T/C",[32],89.1%
same,"viability, T/C",[13],95.2%
same,"viability, T/C",[14],87%
same,"viability, T/C","second compound 0.316 µM, first compound 0.000316 µM",95.6%
same,"viability, T/C","second compound 0.316 µM, first compound 0.001 µM",89.6%
same,"viability, T/C",[33],81.2%
same,"viability, T/C",[34],80.4%
same,"viability, T/C",[17],85.1%
same,"viability, T/C",[18],94.1%
same,"viability, T/C","second compound 1 µM, first compound 0.000316 µM",78.2%
same,"viability, T/C","second compound 1 µM, first compound 0.001 µM",82%
same,"viability, T/C",[35],80.7%
same,"viability, T/C",[36],76.9%
same,"viability, T/C",[21],84.6%
same,"viability, T/C",[22],73.6%
